System: UGT1A7 gene
Test: Association of UGT1A7 polymorphisms with liver function abnormality in tolcapone-treated patients (case-control genotyping)
Type: in vivo, human
Source text: Disease severity had already been controlled for by the original study inclusion criteria.
For all other single nucleotide polymorphisms (SNPs) discovery and genotyping was done by double-stranded DNA sequencing using an ABI capillary sequencer and Big Dye chemistry (ABI). The primers used to amplify all exons are shown below and were also used as sequencing primers. Publicly available genomic sequences were used as references for primer design. All polymorphisms were targeted with these pairs-of-primer sets:
Fourty nanograms of genomic DNA were PCR-amplified in 50 μl reactions using an automated PCR machine. Reaction conditions varied as follows. For the amplification of the UGT1A6-fragment conditions were as follows: 10 mM Tris pH 8.3, 50 mM KCl, 1.5 mM MgCl2, 0.2 mM of each dNTP, 0.4 μM of each primer and 1.5U Boehringer Taq Polymerase. The thermocycling protocol consisted of an initial incubation of 95° C. for 15 min. followed by 35 cycles of 94° C. for 1 min., 57° C. for 30 sec., 72° C. for 1 min., and one final extension step of 72° C. for 10 min. The UGT1A7-1 fragment was amplified using Qiagen PCR buffer with 1.5 mM MgCl2, 0.2 mM of each dNTP, 0.4 μM of each primer and 1.5U Boehringer Taq Polymerase. The thermocycling protocol was the same as for UGT1A6-fragment with one exception: the annealing temperature was 61° C. For UGT1A7-2 fragment PCR conditions were as follows: 150 mM Tris pH 8.5, 15 mM (NH4)2SO4, 3.5 mM MgCl2, 0.2 mM of each dNTP, 0.4 μM of each primer and 1.5U Qiagen Hot Start Taq Polymerase. Thermocycling was done using a touch-down PCR protocol. After an iniatial amplification of 95° C. for 10 min. followed 5 cycles of 95° C. for 1 min., 62° C. for 30 sec. (minus 0.5° C. per cycle), 72° C. for 1 min and thirty cycles of 95° C. for 1 min., 60° C. for 30 sec., 72° C. for 1 min. and a final extension step of 72° C. for 10 min. After PCR amplification fragments were purified using the Qiaquick PCR purification kit on a Biorobot 9600. Cycle sequencing was performed on an automated PCR machine using ABI Big Dye terminator chemistry according to the manufacturer's intruction with the following changes: 2.5-5 ng/100 bp of PCR product were mixed with 2 μl Big Dye terminatior mix, oligonucleotide primer concentration was 10 pmol, if necessary 5% DMSO was added to the reaction; the final reaction volume was 10 μl. Sequencing reactions were subjected to 28 cycles at 93° C. for 30 sec, 48° C. for 30 sec, and 58° C. for 120 sec., followed by an ethanol/NaOAc precipitation. After decanting the ethanol, samples were evaporated to dryness using a SpeedVac for 2 min. and were resuspended in 45 μl ultrapure water (MERCK, HPLC grade). […] were loaded on an ABI 3700 capillary sequencer using POP5 as a polymer. After sequencing, the polymorphism analyses were done using Polyphred software (licenced from University of Washington).
The patient samples were divided into two groups.
For each genotype, the following analyses were performed:
a) Analysis of the entire genotype: patients were classified according to the following three categories: homozygous 1/1 (two copies of allele 1 and no copies of allele 2), heterozygous 1/2 (one copy of allele 1 and one copy of allele 2) or homozygous 2/2 (no copies of allele 1 and two copies of allele 2). Analysis was conducted to assess whether there were differences in the proportion of case patients in each of these groups, compared with the proportion of control patients. The Cochran-Maentel-Hanszel (CMH) test was applied to the data presented in a 2-by-3 table (the two columns indicating presence or absence of liver function abnormality and the three rows indicating the three categories of the genotype).

Cc1ccc(C(=O)c2cc(O)c(O)c([N+](=O)[O-])c2)cc1 [tolcapone]
n (%) of patients (UGT1A7_555 silent or Arg131Lys, Allele C Present, Liver Function Abnormality Present): 74 (56.1%)
n (%) of patients (UGT1A7_555 silent or Arg131Lys, Genotype Heterozygous A/C, Liver Function Abnormality Absent): 124 (46.1%)
n (%) of patients (UGT1A7_555 silent or Arg131Lys, Genotype Heterozygous A/C, Liver Function Abnormality Present): 60 (45.5%)
n (%) of patients (UGT1A7_555 silent or Arg131Lys, Genotype Homozygous A/A, Liver Function Abnormality Absent): 96 (35.7%)
n (%) of patients (UGT1A7_555 silent or Arg131Lys, Genotype Homozygous A/A, Liver Function Abnormality Present): 58 (43.9%)
n (%) of patients (UGT1A7_555 silent or Arg131Lys, Genotype Homozygous G/G, Liver Function Abnormality Absent): 49 (18.2%)
n (%) of patients (UGT1A7_555 silent or Arg131Lys, Genotype Homozygous G/G, Liver Function Abnormality Present): 14 (10.6%)
n (%) of patients (UGT1A7_556 Arg131Lys or Gln, Allele A Absent, Liver Function Abnormality Absent): 49 (18.3%)
n (%) of patients (UGT1A7_556 Arg131Lys or Gln, Allele A Absent, Liver Function Abnormality Present): 14 (10.6%)
n (%) of patients (UGT1A7_556 Arg131Lys or Gln, Allele A Present, Liver Function Abnormality Absent): 219 (81.7%)
n (%) of patients (UGT1A7_556 Arg131Lys or Gln, Allele A Present, Liver Function Abnormality Present): 118 (89.4%)
n (%) of patients (UGT1A7_556 Arg131Lys or Gln, Allele G Absent, Liver Function Abnormality Absent): 96 (35.8%)
n (%) of patients (UGT1A7_556 Arg131Lys or Gln, Allele G Absent, Liver Function Abnormality Present): 59 (44.7%)
n (%) of patients (UGT1A7_556 Arg131Lys or Gln, Allele G Present, Liver Function Abnormality Absent): 172 (64.2%)
n (%) of patients (UGT1A7_556 Arg131Lys or Gln, Allele G Present, Liver Function Abnormality Present): 73 (55.3%)
n (%) of patients (UGT1A7_556 Arg131Lys or Gln, Genotype Heterozygous A/G, Liver Function Abnormality Absent): 123 (45.9%)
n (%) of patients (UGT1A7_556 Arg131Lys or Gln, Genotype Heterozygous A/G, Liver Function Abnormality Present): 59 (44.7%)
n (%) of patients (UGT1A7_556 Arg131Lys or Gln, Genotype Homozygous A/A, Liver Function Abnormality Absent): 96 (35.8%)
n (%) of patients (UGT1A7_556 Arg131Lys or Gln, Genotype Homozygous A/A, Liver Function Abnormality Present): 44 (33.8%)
n (%) of patients (UGT1A7_556 Arg131Lys or Gln, Genotype Homozygous G/G, Liver Function Abnormality Absent): 49 (18.3%)
n (%) of patients (UGT1A7_556 Arg131Lys or Gln, Genotype Homozygous G/G, Liver Function Abnormality Present): 14 (10.6%)
n (%) of patients (UGT1A7_786 Trp208Arg, Allele G Absent, Liver Function Abnormality Absent): 124 (46.3%)
n (%) of patients (UGT1A7_786 Trp208Arg, Allele G Absent, Liver Function Abnormality Present): 46 (34.3%)
n (%) of patients (UGT1A7_786 Trp208Arg, Allele G Present, Liver Function Abnormality Absent): 144 (53.7%)
n (%) of patients (UGT1A7_786 Trp208Arg, Allele G Present, Liver Function Abnormality Present): 86 (65.7%)
n (%) of patients (UGT1A7_786 Trp208Arg, Allele T Absent, Liver Function Abnormality Absent): 30 (11.2%)
n (%) of patients (UGT1A7_786 Trp208Arg, Allele T Absent, Liver Function Abnormality Present): 26 (19.4%)
n (%) of patients (UGT1A7_786 Trp208Arg, Allele T Present, Liver Function Abnormality Absent): 238 (88.8%)
n (%) of patients (UGT1A7_786 Trp208Arg, Allele T Present, Liver Function Abnormality Present): 108 (80.6%)
n (%) of patients (UGT1A7_786 Trp208Arg, Genotype Heterozygous T/C, Liver Function Abnormality Absent): 114 (42.5%)
n (%) of patients (UGT1A7_786 Trp208Arg, Genotype Heterozygous T/C, Liver Function Abnormality Present): 62 (46.3%)
n (%) of patients (UGT1A7_786 Trp208Arg, Genotype Homozygous C/C, Liver Function Abnormality Absent): 30 (11.2%)
n (%) of patients (UGT1A7_786 Trp208Arg, Genotype Homozygous C/C, Liver Function Abnormality Present): 26 (19.4%)
n (%) of patients (UGT1A7_786 Trp208Arg, Genotype Homozygous T/T, Liver Function Abnormality Absent): 124 (46.3%)
n (%) of patients (UGT1A7_786 Trp208Arg, Genotype Homozygous T/T, Liver Function Abnormality Present): 46 (34.3%)

— patent publication US20040076968A1, “Method for detecting pre-disposition to hepatotoxicity” (priority 2000, published 2004)
